These molecules were tested on NCI-H1975 (assay: Antiproliferative activity against human NCI-H1975 cells assessed as inhibition of cell growth measured after 72 hrs by MTT assay). Conditions: NCI-H1975, 72 h.
Assay type: functional, cell-based

SMILES	IC50 [µM]
O=C(NO)c1ccsc1Nc1ccnc(Nc2ccc(N3CCOCC3)cc2)n1	0.542
O=C(NO)c1ccsc1Nc1nc(Nc2ccc(OCCCN3CCOCC3)cc2)ncc1Br	0.524
O=C(NO)c1ccsc1Nc1nc(Nc2cccc(N3CCOCC3)c2)ncc1Cl	0.788
O=C(NO)c1sc2ccccc2c1Nc1nc(Nc2cccc(N3CCOCC3)c2)ncc1Br	15.5
O=C(NO)c1ccsc1Nc1nc(Nc2ccc(N3CCOCC3)cc2)ncc1C(F)(F)F	1.67
Cc1cnc(Nc2ccc(N3CCOCC3)cc2)nc1Nc1ccsc1C(=O)NO	0.474

Results, then the molecule that gave them:

IC50 [µM]	SMILES
0.162	O=C(NO)c1ccsc1Nc1nc(Nc2ccc(CCN3CCOCC3)cc2)ncc1Cl
0.331	O=C(NO)c1ccsc1Nc1nc(Nc2ccc(CN3CCOCC3)cc2)ncc1Cl
1.13	O=C(NO)c1sccc1Nc1nc(Nc2ccc(N3CCOCC3)cc2)ncc1Br
2.4	O=C(NO)c1sc2ccccc2c1Nc1nc(Nc2ccc(N3CCOCC3)cc2)ncc1Br
0.583	COc1cc(Nc2ncc(Cl)c(Nc3sccc3C(=O)NO)n2)cc(OC)c1OC

These molecules were tested on Epidermal growth factor receptor (Homo sapiens), P00533 [UNDEFINED MUTATION]. Conditions: dose 30.0 nM.
Chain of Epidermal growth factor receptor (Homo sapiens), P00533 [UNDEFINED MUTATION] (P00533 whole entry, looked up, change not shown): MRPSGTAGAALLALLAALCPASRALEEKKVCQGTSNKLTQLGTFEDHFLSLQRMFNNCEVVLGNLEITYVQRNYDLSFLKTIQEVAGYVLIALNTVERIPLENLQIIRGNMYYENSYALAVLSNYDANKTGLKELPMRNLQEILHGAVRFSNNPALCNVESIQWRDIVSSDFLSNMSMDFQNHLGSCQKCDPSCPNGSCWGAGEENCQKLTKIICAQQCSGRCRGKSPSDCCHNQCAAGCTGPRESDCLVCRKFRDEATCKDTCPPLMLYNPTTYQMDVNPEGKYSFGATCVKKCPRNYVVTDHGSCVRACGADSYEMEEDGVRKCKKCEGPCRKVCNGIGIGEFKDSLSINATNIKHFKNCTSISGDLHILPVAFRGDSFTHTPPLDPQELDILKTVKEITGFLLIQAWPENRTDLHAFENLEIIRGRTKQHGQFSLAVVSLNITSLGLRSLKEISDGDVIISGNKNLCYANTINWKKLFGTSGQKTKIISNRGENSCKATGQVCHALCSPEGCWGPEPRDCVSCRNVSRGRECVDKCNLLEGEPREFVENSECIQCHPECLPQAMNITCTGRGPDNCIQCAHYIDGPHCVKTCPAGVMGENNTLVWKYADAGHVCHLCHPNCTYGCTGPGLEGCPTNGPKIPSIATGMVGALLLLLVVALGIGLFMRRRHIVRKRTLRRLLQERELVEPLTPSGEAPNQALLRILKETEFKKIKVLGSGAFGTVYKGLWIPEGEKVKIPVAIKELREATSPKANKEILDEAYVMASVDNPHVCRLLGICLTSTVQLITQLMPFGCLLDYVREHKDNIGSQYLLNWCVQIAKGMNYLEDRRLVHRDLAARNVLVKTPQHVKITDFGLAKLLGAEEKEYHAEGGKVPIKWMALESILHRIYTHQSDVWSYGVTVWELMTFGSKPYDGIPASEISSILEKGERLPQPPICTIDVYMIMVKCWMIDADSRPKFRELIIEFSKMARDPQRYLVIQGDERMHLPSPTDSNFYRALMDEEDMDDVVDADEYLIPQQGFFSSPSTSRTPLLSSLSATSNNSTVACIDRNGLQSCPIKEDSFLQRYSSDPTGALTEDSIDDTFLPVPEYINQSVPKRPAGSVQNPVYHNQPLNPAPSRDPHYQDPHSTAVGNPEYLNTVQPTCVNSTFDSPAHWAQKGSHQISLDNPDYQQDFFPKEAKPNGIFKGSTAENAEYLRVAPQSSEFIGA

SMILES	inhibition [%]
O=C(NO)c1ccsc1Nc1ccnc(Nc2ccc(N3CCOCC3)cc2)n1	15.9
O=C(NO)c1ccsc1Nc1nc(Nc2ccc(OCCCN3CCOCC3)cc2)ncc1Br	29.8
O=C(NO)c1ccsc1Nc1nc(Nc2cccc(N3CCOCC3)c2)ncc1Cl	23.9
O=C(NO)c1sc2ccccc2c1Nc1nc(Nc2cccc(N3CCOCC3)c2)ncc1Br	14.4
O=C(NO)c1ccsc1Nc1nc(Nc2ccc(N3CCOCC3)cc2)ncc1C(F)(F)F	18.2
Cc1cnc(Nc2ccc(N3CCOCC3)cc2)nc1Nc1ccsc1C(=O)NO	42.1

More lines, now with the values ahead:

inhibition [%]	SMILES
36.7	O=C(NO)c1ccsc1Nc1nc(Nc2ccc(CCN3CCOCC3)cc2)ncc1Cl
44.1	O=C(NO)c1ccsc1Nc1nc(Nc2ccc(CN3CCOCC3)cc2)ncc1Cl
44.9	O=C(NO)c1sccc1Nc1nc(Nc2ccc(N3CCOCC3)cc2)ncc1Br
0.17	O=C(NO)c1sc2ccccc2c1Nc1nc(Nc2ccc(N3CCOCC3)cc2)ncc1Br
23.1	COc1cc(Nc2ncc(Cl)c(Nc3sccc3C(=O)NO)n2)cc(OC)c1OC

Each molecule was assayed on HCC827 (assay: Antiproliferative activity against human HCC827 cells assessed as inhibition of cell growth measured after 72 hrs by MTT assay). Conditions: HCC827, 72 h.
Assay type: functional, cell-based

SMILES	IC50 [µM]
O=C(NO)c1ccsc1Nc1ccnc(Nc2ccc(N3CCOCC3)cc2)n1	0.463
O=C(NO)c1ccsc1Nc1nc(Nc2ccc(OCCCN3CCOCC3)cc2)ncc1Br	0.335
O=C(NO)c1ccsc1Nc1nc(Nc2cccc(N3CCOCC3)c2)ncc1Cl	0.462
O=C(NO)c1sc2ccccc2c1Nc1nc(Nc2cccc(N3CCOCC3)c2)ncc1Br	0.584
O=C(NO)c1ccsc1Nc1nc(Nc2ccc(N3CCOCC3)cc2)ncc1C(F)(F)F	1.7
Cc1cnc(Nc2ccc(N3CCOCC3)cc2)nc1Nc1ccsc1C(=O)NO	0.055

Continued, values first:

IC50 [µM]	SMILES
0.045	O=C(NO)c1ccsc1Nc1nc(Nc2ccc(CCN3CCOCC3)cc2)ncc1Cl
0.033	O=C(NO)c1ccsc1Nc1nc(Nc2ccc(CN3CCOCC3)cc2)ncc1Cl
0.032	O=C(NO)c1sccc1Nc1nc(Nc2ccc(N3CCOCC3)cc2)ncc1Br
4.34	O=C(NO)c1sc2ccccc2c1Nc1nc(Nc2ccc(N3CCOCC3)cc2)ncc1Br
0.069	COc1cc(Nc2ncc(Cl)c(Nc3sccc3C(=O)NO)n2)cc(OC)c1OC

What follows are molecules tested on Epidermal growth factor receptor (Homo sapiens), P00533 [UNDEFINED MUTATION]. Conditions: dose 100.0 nM.

SMILES	inhibition [%]
O=C(NO)c1ccsc1Nc1ccnc(Nc2ccc(N3CCOCC3)cc2)n1	50.2
O=C(NO)c1ccsc1Nc1nc(Nc2ccc(OCCCN3CCOCC3)cc2)ncc1Br	53
O=C(NO)c1ccsc1Nc1nc(Nc2cccc(N3CCOCC3)c2)ncc1Cl	66.8
O=C(NO)c1sc2ccccc2c1Nc1nc(Nc2cccc(N3CCOCC3)c2)ncc1Br	32.2
O=C(NO)c1ccsc1Nc1nc(Nc2ccc(N3CCOCC3)cc2)ncc1C(F)(F)F	32.7
Cc1cnc(Nc2ccc(N3CCOCC3)cc2)nc1Nc1ccsc1C(=O)NO	71.2

More lines, now with the values ahead:

inhibition [%]	SMILES
64.9	O=C(NO)c1ccsc1Nc1nc(Nc2ccc(CCN3CCOCC3)cc2)ncc1Cl
70.9	O=C(NO)c1ccsc1Nc1nc(Nc2ccc(CN3CCOCC3)cc2)ncc1Cl
67.2	O=C(NO)c1sccc1Nc1nc(Nc2ccc(N3CCOCC3)cc2)ncc1Br
4.79	O=C(NO)c1sc2ccccc2c1Nc1nc(Nc2ccc(N3CCOCC3)cc2)ncc1Br
59.9	COc1cc(Nc2ncc(Cl)c(Nc3sccc3C(=O)NO)n2)cc(OC)c1OC

Each molecule was assayed on A549 (assay: Antiproliferative activity against human A549 cells assessed as inhibition of cell growth measured after 72 hrs by MTT assay). Conditions: A549, 72 h.
Assay type: functional, cell-based

SMILES	IC50 [µM]
O=C(NO)c1ccsc1Nc1ccnc(Nc2ccc(N3CCOCC3)cc2)n1	5.63
O=C(NO)c1ccsc1Nc1nc(Nc2ccc(OCCCN3CCOCC3)cc2)ncc1Br	0.733
O=C(NO)c1ccsc1Nc1nc(Nc2cccc(N3CCOCC3)c2)ncc1Cl	0.828
O=C(NO)c1sc2ccccc2c1Nc1nc(Nc2cccc(N3CCOCC3)c2)ncc1Br	18.2
O=C(NO)c1ccsc1Nc1nc(Nc2ccc(N3CCOCC3)cc2)ncc1C(F)(F)F	18.6
Cc1cnc(Nc2ccc(N3CCOCC3)cc2)nc1Nc1ccsc1C(=O)NO	0.169

Other lines, results leading:

IC50 [µM]	SMILES
0.388	O=C(NO)c1ccsc1Nc1nc(Nc2ccc(CCN3CCOCC3)cc2)ncc1Cl
0.371	O=C(NO)c1ccsc1Nc1nc(Nc2ccc(CN3CCOCC3)cc2)ncc1Cl
0.201	O=C(NO)c1sccc1Nc1nc(Nc2ccc(N3CCOCC3)cc2)ncc1Br
4.85	O=C(NO)c1sc2ccccc2c1Nc1nc(Nc2ccc(N3CCOCC3)cc2)ncc1Br
0.521	COc1cc(Nc2ncc(Cl)c(Nc3sccc3C(=O)NO)n2)cc(OC)c1OC
